The values that follow come from patent publication US4751302A, “Indazole derivatives” (priority 1982, dated 1988).

One data set can be described thus: in vivo. As to conditions: mouse, ip, intraperitoneal, hydrochloride, male ddy mice.
For data set [1], the system named is Carrageenin edema in rat's paw. The experiment in a line: Carrageenin Edema Test in Rat's Paw (anti-inflammatory activity, Table 1). Format: in vivo. The settings on record: 100 mg/kg oral, hydrochloride, rat. As for the experimental part:
An anti-inflammatory activity was measured by orally administering 100 mg/kg of a hydrochloride of the indazole derivative of this invention as set forth in Table 1 to an animal in accordance with the standard method of Carrageenin Edema Test in Rat's Paw described in C. A. Winter et al., Proc. Soc. Exp. Biol. Med., 111, 544 (1962).
A general note: Carrageenan injected into the paw causes an acute inflammation.

On to `CC1CCCCN1CCCn1nc(N)c2cc(Cl)ccc21` (stereo not shown) [(15), 1-[3-(2-Methylpiperidino)propyl]-3-amino-5-chloroindazole], for which the median lethal dose (LD50) (commonly the dose at which mortality reaches 50%) in the data set “in vivo” amounted to 250 mg/kg. Besides, in data set [1], the inhibition in vivo (commonly the change of the read-out against control, counted positive when it falls) at 100 mg/kg worked out at 50%.

Compound `CC1CCCC(C)N1CCCn1nc(N)c2cc(Cl)ccc21` (stereo not shown) [(16), 1-[3-(2,6-Dimethylpiperidino)propyl]-3-amino-5-chloroindazole] displayed an LD50 in “in vivo” of 214 mg/kg. This compound showed an inhibition in vivo at 100 mg/kg in data set [1] of 33%.

For `Nc1nn(CCCN2CCC(O)CC2)c2ccc(Cl)cc12` [(17), 1-[3-(4-Hydroxypiperidino)propyl]-3-amino-5-chloroindazole], the 50% lethal dose (LD50) in the data set “in vivo” came to 251 mg/kg. Further, the inhibition in vivo at 100 mg/kg in data set [1] amounted to 37%.

As for `Nc1nn(CCCN2CCC(Cl)CC2)c2ccc(Cl)cc12` [(18), 1-[3-(4-Chloropiperidino)propyl]-3-amino-5-chloroindazole], the LD50 in the data set “in vivo” was 278 mg/kg. Besides, the inhibition in vivo at 100 mg/kg in data set [1] is 66%.

Compound `Nc1nn(CCCN2CCCCCC2)c2ccc(Cl)cc12` [(19), 1-(3-Homopiperidinopropyl)-3-amino-5-chloroindazole] came in with an LD50 in the data set “in vivo” of 251 mg/kg. This compound also registered an inhibition in vivo at 100 mg/kg in data set [1] of 38%.

As for `CN1CCN(CCCn2nc(N)c3cc(Cl)ccc32)CC1` [(20), 1-[3-(4-Methylpiperazino)propyl]-3-amino-5-chloroindazole], the LD50 in the data set “in vivo” came out at 278 mg/kg. In data set [1], this compound displayed an inhibition in vivo at 100 mg/kg of 26%.

In the case of `Nc1nn(CCCN2CCCC2)c2ccc(Cl)cc12` [(21), 1-(3-Pyrrolidinopropyl)-3-amino-5-chloroindazole], in “in vivo”, the LD50 worked out at 311 mg/kg. The same compound showed an inhibition in vivo at 100 mg/kg in data set [1] of 39%.

`Nc1nn(CCCN2CCOCC2)c2ccc(Cl)cc12` [(22), 1-(3-Morpholinopropyl)-3-amino-5-chloroindazole] displayed an LD50 in the data set “in vivo” of 388 mg/kg. Further, in data set [1], testing at 100 mg/kg gave an inhibition in vivo of 46%.

Take `CCN(CC)CCCn1nc(N)c2c(O)cccc21` [(23), 1-(3-Diethylaminopropyl)-3-amino-4-hydroxyindazole]: the LD50 in the data set “in vivo” worked out at 179 mg/kg. In data set [1], this compound displayed an inhibition in vivo at 100 mg/kg of 56%.

In the data set “in vivo”, `CCN(CC)CCCn1nc(N)c2cc(O)ccc21` [(24), 1-(3-Diethylaminopropyl)-3-amino-5-hydroxyindazole] came in with an LD50 of 161 mg/kg. The compound further had an inhibition in vivo at 100 mg/kg in data set [1] of 53%.

In the data set “in vivo”, `CCN(CC)CCCn1nc(N)c2ccc(O)cc21` [(25), 1-(3-Diethylaminopropyl)-3-amino-6-hydroxyindazole] yielded an LD50 of 301 mg/kg. For the same compound, at 100 mg/kg the inhibition in vivo in data set [1] was 52%.

In turn, `CCN(CC)CCCn1nc(N)c2cccc(O)c21` [(26), 1-(3-Diethylaminopropyl)-3-amino-7-hydroxyindazole] displayed an LD50 in the data set “in vivo” of 297 mg/kg. In data set [1], this compound showed an inhibition in vivo at 100 mg/kg of 57%.

In the case of `CCN(CC)CCCn1nc(N)c2cc(I)ccc21` [(27), 1-(3-Diethylaminopropyl)-3-amino-5-iodoindazole], in “in vivo”, the 50% lethal dose (LD50) amounted to 281 mg/kg. The compound also yielded an inhibition in vivo at 100 mg/kg in data set [1] of 57%.

With `CCN(CC)CCCn1nc(N)c2cccc(I)c21` [(28), 1-(3-Diethylaminopropyl)-3-amino-7-iodoindazole], the LD50 in the data set “in vivo” worked out at 103 mg/kg. In addition, in data set [1], the inhibition in vivo at 100 mg/kg was determined as 54%.

`CCN(CC)CCCn1nc(N)c2cc(N)cc(N)c21` [(29), 1-(3-Diethylaminopropyl)-3,5,7-triaminoindazole] displayed an LD50 in the data set “in vivo” of 104 mg/kg. For the same compound, in data set [1], the inhibition in vivo at 100 mg/kg was 56%.

`CCCCN(CCCC)CCCn1nc(N)c2cc(O)ccc21` [(30), 1-(3-Di-n-butylaminopropyl)-3-amino-5-hydroxyindazole] returned a 50% lethal dose (LD50) in “in vivo” of 255 mg/kg. In data set [1], this compound showed an inhibition in vivo at 100 mg/kg of 54%.

On to `CC(CCn1nc(N)c2cc(O)ccc21)N(C)C` (stereo not shown) [(31), 1-(3-Dimethylaminobutyl)-3-amino-5-hydroxyindazole], for which the median lethal dose (LD50) in “in vivo” was 241 mg/kg. Besides, in data set [1], the inhibition in vivo at 100 mg/kg was determined as 35%.

As to `CCN(CC)C(CCn1nc(N)c2cc(O)ccc21)CC(C)C` (stereo not shown) [(32), 1-(3-Diethylamino-5-methylhexyl)-3-amino-5-hydroxyindazole], in the data set “in vivo”, the LD50 was determined as 251 mg/kg. The compound further displayed an inhibition in vivo at 100 mg/kg in data set [1] of 47%.

As to `Nc1nn(CCCN2CCCCC2)c2ccc(O)cc12` [(33), 1-(3-Piperidinopropyl)-3-amino-5-hydroxyindazole], the LD50 in the data set “in vivo” was found to be 227 mg/kg. Besides, the inhibition in vivo at 100 mg/kg in data set [1] came out at 52%.

With `Nc1nn(CCCCCCN2CCCCC2)c2ccc(O)cc12` [(34), 1-(6-Piperidinohexyl)-3-amino-5-hydroxyindazole], in the data set “in vivo”, the 50% lethal dose (LD50) was 231 mg/kg. In addition, the inhibition in vivo at 100 mg/kg in data set [1] was 26%.

Consider `CC(CCn1nc(N)c2cc(O)ccc21)N1CCCCC1` (stereo not shown) [(35), 1-(3-Piperidinobutyl)-3-amino-5-hydroxyindazole], for which the LD50 in the data set “in vivo” amounted to 246 mg/kg. In data set [1], this compound displayed an inhibition in vivo at 100 mg/kg of 47%.

In the data set “in vivo”, `CC(C)CC(CCn1nc(N)c2cc(O)ccc21)N1CCCCC1` (stereo not shown) [(36), 1-(3-Piperidino-5-methylhexyl)-3-amino-5-hydroxyindazole] returned an LD50 of 251 mg/kg. The compound further showed an inhibition in vivo at 100 mg/kg in data set [1] of 32%.

`CC1CCCCN1CCCn1nc(N)c2cc(O)ccc21` (stereo not shown) [(37), 1-[3-(2-Methylpiperidino)propyl]-3-amino-5-hydroxyindazole]: in the data set “in vivo”, the LD50 was 267 mg/kg. The compound further showed an inhibition in vivo at 100 mg/kg in data set [1] of 48%.

With `CC1CCCC(C)N1CCCn1nc(N)c2cc(O)ccc21` (stereo not shown) [(38), 1-[3-(2,6-Dimethylpiperidino)propyl]-3-amino-5-hydroxyindazole], in “in vivo”, the LD50 came to 278 mg/kg. In data set [1], this compound showed an inhibition in vivo at 100 mg/kg of 31%.

For `Nc1nn(CCCN2CCC(O)CC2)c2ccc(O)cc12` [(39), 1-[3-(4-Hydroxypiperidino)propyl]-3-amino-5-hydroxyindazole], the LD50 in the data set “in vivo” amounted to 311 mg/kg. This compound also gave an inhibition in vivo at 100 mg/kg in data set [1] of 35%.

In “in vivo”, `Nc1nn(CCCN2CCC(Cl)CC2)c2ccc(O)cc12` [(40), 1-[3-(4-Chloropiperidino)propyl]-3-amino-5-hydroxyindazole] had a median lethal dose (LD50) of 335 mg/kg. The compound further registered an inhibition in vivo at 100 mg/kg in data set [1] of 64%.

In turn, `Nc1nn(CCCN2CCCCCC2)c2ccc(O)cc12` [(41), 1-(3-Homopiperidinopropyl)-3-amino-5-hydroxyindazole] came in with an LD50 in the data set “in vivo” of 340 mg/kg. This compound also displayed an inhibition in vivo at 100 mg/kg in data set [1] of 36%.

In the case of `CN1CCN(CCCn2nc(N)c3cc(O)ccc32)CC1` [(42), 1-[3-(4-Methylpiperazino)propyl]-3-amino-5-hydroxyindazole], in the data set “in vivo”, the median lethal dose (LD50) is 341 mg/kg. The compound also gave an inhibition in vivo at 100 mg/kg in data set [1] of 24%.

As for `Nc1nn(CCCN2CCCC2)c2ccc(O)cc12` [(43), 1-(3-Pyrrolidinopropyl)-3-amino-5-hydroxyindazole], the 50% lethal dose (LD50) in the data set “in vivo” came to 211 mg/kg. Testing at 100 mg/kg in data set [1] gave an inhibition in vivo of 36%.

Compound `Nc1nn(CCCN2CCOCC2)c2ccc(O)cc12` [(44), 1-(3-Morpholinopropyl)-3-amino-5-hydroxyindazole] showed an LD50 in “in vivo” of 368 mg/kg. For the same compound, 100 mg/kg produced 46% inhibition in vivo in data set [1].

In the case of `CCN(CC)CCCNc1n[nH]c2cccc(Cl)c12` [(45), 3-(3-Diethylaminopropylamino)-4-chloroindazole], in “in vivo”, the LD50 came to 271 mg/kg. This compound had an inhibition in vivo at 100 mg/kg in data set [1] of 61%.

In “in vivo”, `CCN(CC)CCCNc1n[nH]c2cc(Cl)ccc12` [(47), 3-(3-Diethylaminopropylamino)-6-chloroindazole] yielded a 50% lethal dose (LD50) of 278 mg/kg. For the same compound, the inhibition in vivo at 100 mg/kg in data set [1] worked out at 58%.

The compound `CCN(CC)CCCNc1n[nH]c2c(Cl)cccc12` [(48), 3-(3-Diethylaminopropylamino)-7-chloroindazole] displayed an LD50 in the data set “in vivo” of 291 mg/kg. The compound also gave an inhibition in vivo at 100 mg/kg in data set [1] of 57%.

Turning to `CCN(CC)CCCNc1n[nH]c2ccc(N)cc12` [(49), 3-(3-Diethylaminopropylamino)-5-aminoindazole], the LD50 in the data set “in vivo” turned out to be 244 mg/kg. The compound also showed an inhibition in vivo at 100 mg/kg in data set [1] of 55%.

As for `CCN(CC)CCCNc1n[nH]c2ccc(OC)cc12` [(50), 3-(3-Diethylaminopropylamino)-5-methoxyindazole], the LD50 in the data set “in vivo” was 200 mg/kg. In data set [1], the inhibition in vivo at 100 mg/kg amounted to 52%.

In the data set “in vivo”, `CCN(CC)CCCNc1n[nH]c2ccc(C)cc12` [(51), 3-(3-Diethylaminopropylamino)-5-methylindazole] yielded a median lethal dose (LD50) of 231 mg/kg. This compound also yielded an inhibition in vivo at 100 mg/kg in data set [1] of 60%.

`CCCCN(CCCC)CCCNc1n[nH]c2ccc(Cl)cc12` [(52), 3-(3-Di-n-butylaminopropylamino)-5-chloroindazole]: in “in vivo”, the LD50 worked out at 211 mg/kg. In addition, testing at 100 mg/kg in data set [1] gave an inhibition in vivo of 61%.

Regarding `CC(CCNc1n[nH]c2ccc(Cl)cc12)N(C)C` (stereo not shown) [(53), 3-(3-Dimethylaminobutylamino)-5-chloroindazole], the median lethal dose (LD50) in “in vivo” came out at 313 mg/kg. For the same compound, the inhibition in vivo at 100 mg/kg in data set [1] amounted to 48%.

As to `CCN(CC)C(CCNc1n[nH]c2ccc(Cl)cc12)CC(C)C` (stereo not shown) [(54), 3-(3-Diethylamino-5-methylhexylamino)-5-chloroindazole], the median lethal dose (LD50) in the data set “in vivo” turned out to be 251 mg/kg. The same compound displayed an inhibition in vivo at 100 mg/kg in data set [1] of 46%.

`Clc1ccc2[nH]nc(NCCCN3CCCCC3)c2c1` [(55), 3-(3-Piperidinopropylamino)-5-chloroindazole] gave an LD50 in the data set “in vivo” of 133 mg/kg. In data set [1], this compound showed an inhibition in vivo at 100 mg/kg of 47%.

As for `Clc1ccc2[nH]nc(NCCCCCCN3CCCCC3)c2c1` [(56), 3-(6-Piperidinohexylamino)-5-chloroindazole], the LD50 in “in vivo” was found to be 145 mg/kg. Testing at 100 mg/kg in data set [1] gave an inhibition in vivo of 29%.

As for `CC(CCNc1n[nH]c2ccc(Cl)cc12)N1CCCCC1` (stereo not shown) [(57), 3-(3-Piperidinobutylamino)-5-chloroindazole], the LD50 in “in vivo” came to 173 mg/kg. In data set [1], at 100 mg/kg the inhibition in vivo was 54%.

On to `CC(C)CC(CCNc1n[nH]c2ccc(Cl)cc12)N1CCCCC1` (stereo not shown) [(58), 3-(3-Piperidino-5-methylhexylamino)-5-chloroindazole], for which the LD50 in “in vivo” is 180 mg/kg. The inhibition in vivo at 100 mg/kg in data set [1] was 40%.

Compound `CC1CCCCN1CCCNc1n[nH]c2ccc(Cl)cc12` (stereo not shown) [(59), 3-[3-(2-Methylpiperidino)propylamino]-5-chloroindazole] registered a 50% lethal dose (LD50) in the data set “in vivo” of 210 mg/kg. Moreover, in data set [1], 100 mg/kg produced 63% inhibition in vivo.
